The numbers were not newly measured in patent publication US20100297195A1, “CONTROLLED RELEASE LAMOTRIGINE FORMULATIONS” (RANBAXY LABORATORIES LIMITED, priority 2009, published 2010), which cites them from elsewhere.

The structures appear in SMILES notation.

For this data set the following is noted: oral administration.

On to `Nc1nnc(-c2cccc(Cl)c2Cl)c(N)n1` [Lamotrigine, 3,5-diamino-6-(2,3-dichlorophenyl)-1,2,4-triazine], for which the absolute bioavailability is given as 98% and the “effect of food on bioavailability” value is listed as “not affected by food”.
